Source: ChEMBL document CHEMBL1201862, “PubChem BioAssay data set” (2004)
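48-hour exposure; five concentrations; linearly interpolated endpoints. Abbreviation: GI50, concentration required for 50% inhibition of growth.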 Activity calls are given as the source filed them. No stated cut-off is given here; in the data, active = GI50 up to about 1.1 µM and inactive = higher.

Key:
Assay in all cases: NCI anticancer screen, dose series, 48 h
786-0 = tested on: 786-0
CCRF-CEM = tested on: CCRF-CEM
COLO 205 = tested on: COLO 205
HL-60 = tested on: HL-60
HOP-92 = tested on: HOP-92
IGROV-1 = tested on: IGROV-1
K562 = tested on: K562
MOLT-4 = tested on: MOLT-4
NCI-H460 = tested on: NCI-H460
NCI-H522 = tested on: NCI-H522
NCI/ADR-RES = tested on: NCI/ADR-RES
PC-3 = tested on: PC-3
SF-539 = tested on: SF-539
SK-MEL-28 = tested on: SK-MEL-28
SK-MEL-2 = tested on: SK-MEL-2
SK-OV-3 = tested on: SK-OV-3
SW-620 = tested on: SW-620
TK-10 = tested on: TK-10
UACC-257 = tested on: UACC-257
UACC-62 = tested on: UACC-62

Measured: GI50

CCOC(=O)/C=C1\C[C@H](NC(=O)OCc2ccccc2)C(=O)N1CC(=O)OCC
inactive: 786-0 > 100 µM | CCRF-CEM > 100 µM | COLO 205 > 100 µM | HL-60 > 100 µM | HOP-92 > 100 µM | IGROV-1 > 100 µM | K562 > 100 µM | MOLT-4 > 100 µM | NCI-H460 > 100 µM | NCI-H522 > 100 µM | NCI/ADR-RES > 100 µM | PC-3 > 100 µM | SF-539 > 100 µM | SK-MEL-28 > 100 µM | SK-MEL-2 > 100 µM | SK-OV-3 > 100 µM | SW-620 > 100 µM | TK-10 > 100 µM | UACC-257 > 100 µM | UACC-62 > 100 µM

CC(=O)Nc1nc(C)c(S(=O)(=O)NC(=O)NC2NC(=O)NC2=O)s1 (stereo not given)
inactive: 786-0 > 100 µM | CCRF-CEM > 100 µM | COLO 205 > 100 µM | HL-60 > 100 µM | HOP-92 > 100 µM | IGROV-1 > 100 µM | K562 > 100 µM | MOLT-4 > 100 µM | NCI-H460 > 100 µM | NCI-H522 > 100 µM | NCI/ADR-RES > 100 µM | PC-3 > 100 µM | SF-539 > 100 µM | SK-MEL-28 > 100 µM | SK-MEL-2 > 100 µM | SK-OV-3 > 100 µM | SW-620 > 100 µM | TK-10 > 100 µM | UACC-257 > 100 µM | UACC-62 > 100 µM

C=C1c2nc3ccccc3n2C=C(c2ccc(C)cc2)N1c1ccc(OC)cc1
inactive: 786-0 > 100 µM | CCRF-CEM 34.4 µM | COLO 205 31.9 µM | HL-60 8.34 µM | HOP-92 > 48.2 µM | IGROV-1 > 83 µM | K562 6.41 µM | MOLT-4 15.2 µM | NCI-H460 59.8 µM | NCI-H522 7.52 µM | NCI/ADR-RES 14.9 µM | PC-3 16.4 µM | SF-539 > 69.5 µM | SK-MEL-28 > 70.5 µM | SK-MEL-2 60.7 µM | SK-OV-3 > 100 µM | SW-620 13.6 µM | TK-10 > 83.4 µM | UACC-257 > 89.1 µM | UACC-62 51.3 µM

CN1CCc2cc(N)cc3c2C1Cc1ccc(O)c(O)c1-3 (stereo not given)
inactive: 786-0 33 µM | CCRF-CEM 3.75 µM | COLO 205 37.9 µM | HL-60 25.8 µM | HOP-92 51.2 µM | IGROV-1 33.7 µM | K562 24.9 µM | MOLT-4 3.92 µM | NCI-H460 30.5 µM | NCI-H522 27.2 µM | NCI/ADR-RES 36.8 µM | PC-3 38.2 µM | SF-539 38 µM | SK-MEL-28 35.6 µM | SK-MEL-2 40.9 µM | SK-OV-3 52.7 µM | SW-620 31.8 µM | TK-10 24.7 µM | UACC-257 16.3 µM | UACC-62 23.7 µM

CNc1nc(=O)c(C#N)c(-c2ccc(C)cc2)s1
inactive: 786-0 > 100 µM | CCRF-CEM > 100 µM | COLO 205 > 100 µM | HL-60 53.7 µM | HOP-92 > 100 µM | IGROV-1 > 100 µM | K562 > 100 µM | MOLT-4 > 100 µM | NCI-H460 > 100 µM | NCI-H522 59.3 µM | NCI/ADR-RES > 100 µM | PC-3 > 100 µM | SF-539 > 100 µM | SK-MEL-28 > 100 µM | SK-MEL-2 > 100 µM | SK-OV-3 > 100 µM | SW-620 > 100 µM | TK-10 > 100 µM | UACC-257 > 100 µM | UACC-62 > 100 µM
